How the values were obtained:
[1] = test system: Aβ secretion, HEK293 cells transfected with APP695 and SrcYF; test: Aβ accumulation in culture medium of HEK293 cells co-transfected with APP695 and active Src (SrcYF), sandwich ELISA (FIG. 5); type: cell-based, Human; details: exposure for 48 hours to 1, 5 and 20 μM PP2 or PP3, sandwich ELISA on culture medium
Description: Human embryonic kidney cells (HEK293) were cultured in Dulbecco's modified minimal medium supplemented with 10% fetal calf serum at 37° C. in a 5% CO2 atmosphere. For transfection, cells were grown for 16 hours in antibiotic-free medium, and transfected with Lipofectamine 2000 (Invitrogen) according to manufacturer's instructions. The total amount of DNA was maintained constant by addition of empty vector DNA. […] The extracts were clarified by centrifugation at 16,000×g at 4° C., and the protein concentration determined by the Bio-Rad protein assay according to manufacturer's instructions. […] Radioactive samples were resolved on 10% SDS-PAGE and quantitated with a Storm 840 phosphorimager (Amersham Pharmacia Biotech). […]
HEK293 cells were transfected with APP695 expression vectors. […] HEK293 cells were co-transfected with APP and either empty vector, or active Abl (Abl-PP), or active Src (SrcYF) kinases, and the secretion of APPsec and β were evaluated. […] Both medium and protein extracts have been used in immunoprecipitation experiments for quantitative dosage of radiolabeled APPsec and holo-APP, respectively. […]

[2] = test system: Aβ secretion, CHO cells stably overexpressing APP751; test: Aβ secretion from CHO cells stably overexpressing APP751 treated with PP2 or PP3 (FIG. 6); type: cell-based; details: PP2 5 and 20 μM, PP3 20 μM (highest concentration), time points 1, 3 and 12 hours
Description: Therefore, a line of CHO cells stably overexpressing APP751 form was used, which secretes discrete levels of Aβ. If secretion involves endogenous Src activity, PP2 should be able to inhibit production of Aβ also in this cellular system.
Human embryonic kidney cells (HEK293) were cultured in Dulbecco's modified minimal medium supplemented with 10% fetal calf serum at 37° C. in a 5% CO2 atmosphere. For transfection, cells were grown for 16 hours in antibiotic-free medium, and transfected with Lipofectamine 2000 (Invitrogen) according to manufacturer's instructions. The total amount of DNA was maintained constant by addition of empty vector DNA. 48 hours after transfection, culture medium were recovered, while cells were harvested in ice-cold phosphate buffer saline (PBS) and gently lysed in lysis buffer (50 mM Tris/HCl, pH 7.5, 150 mM NaCl, 0.5% Triton X-100, 10% glycerol, 50 mM NaF, 1mM Na vanadate), in the presence of a protease inhibitor cocktail (Complete, EDTA-free, Roche). The extracts were clarified by centrifugation at 16,000×g at 4° C., and the protein concentration determined by the Bio-Rad protein assay according to manufacturer's instructions. […] Radioactive samples were resolved on 10% SDS-PAGE and quantitated with a Storm 840 phosphorimager (Amersham Pharmacia Biotech). […]

Compound: CC(C)(C)n1nc(-c2ccc(Cl)cc2)c2c(N)ncnc21 [PP2, 4-amino-5-(4-chlorophenyl)-7-(t-butyl)pyrazolo[3,4d]pyrimidine]
- secreted Aβ [1]: dose-dependent decrease of secreted AP
- amount of Aβ [2]: reduces in a dose-dependent manner the amount of Aβ

Compound: Nc1ncnc2c1cnn2-c1ccccc1 [PP3]
- secreted Aβ [1]: do not affect Aβ rise by SrcYF transfection
- amount of Aβ [2]: has no effect

From US20040176313A1, “Inhibitors of Src kinase for use in alzheimer's disease” (Aventis Pharma S.A., priority 2002, published 2004)
